Here are results for 27 compounds from patent publication US9079919B2 (HOFFMANN-LA ROCHE INC., priority 2011, dated 2015).

The target in this experiment is T1, BACE1 (Homo sapiens, UniProt P56817).
T1 construct: Human HEK293 cells which are stably transfected with a vector expressing a cDNA of the human APP wt gene (APP695); endogenous in cells; host or cells: HEK293 cells stably transfected with human APP695 (wt)
T1 sequence (P56817 46-501): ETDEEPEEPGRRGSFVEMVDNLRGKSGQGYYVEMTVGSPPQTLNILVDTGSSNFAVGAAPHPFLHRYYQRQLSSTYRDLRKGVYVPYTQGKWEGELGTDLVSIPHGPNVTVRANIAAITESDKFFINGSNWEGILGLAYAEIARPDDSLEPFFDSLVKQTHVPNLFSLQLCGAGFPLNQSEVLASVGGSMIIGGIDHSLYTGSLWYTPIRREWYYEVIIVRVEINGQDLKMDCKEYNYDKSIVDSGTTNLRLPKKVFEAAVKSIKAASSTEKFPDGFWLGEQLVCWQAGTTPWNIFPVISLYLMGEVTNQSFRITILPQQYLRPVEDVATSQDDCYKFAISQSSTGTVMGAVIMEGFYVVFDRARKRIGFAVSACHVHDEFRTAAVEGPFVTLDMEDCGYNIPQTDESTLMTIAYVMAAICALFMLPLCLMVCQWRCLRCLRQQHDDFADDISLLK
Nature of the experiment: Cellular Aβ-lowering assay a) (Aβ40 ELISA). Format: cell-based. The note with it: cellular assay a): HEK293 cells expressing human APP695, Aβ40 in supernatant by ELISA after 18-20 hrs; read-out: BACE1 cell act. Aβ40 IC50. As to the method:
a) Human HEK293 cells which are stably transfected with a vector expressing a cDNA of the human APP wt gene (APP695) were used to assess the potency of the compounds in a cellular assay. The cells were seeded in 96-well microtiter plates in cell culture medium (Iscove, plus 10% (v/v) fetal bovine serum, glutamine, penicillin/streptomycin) to about 80% confluence and the compounds were added at a 10× concentration in 1/10 volume of medium without FCS containing 8% DMSO (final concentration of DMSO was kept at 0.8% v/v). After 18-20 hrs incubation at 37° C. and 5% CO2 in a humidified incubator the culture supernatant was harvested for the determination of Aβ40 concentrations. 96 well ELISA plates (e.g., Nunc MaxiSorb) were coated with monoclonal antibody which specifically recognize the C-terminal end of Aβ40 (Brockhaus et al., NeuroReport 9, 1481-1486; 1998). After blocking of non-specific binding sites with e.g. 1% BSA and washing, the culture supernatants were added in suitable dilutions together with a horseradish peroxidase-coupled Aβ detection antibody (e.g., antibody 4G8, Senetek, Maryland Heights, Mo.) and incubated for 5 to 7 hrs. Subsequently the wells of the microtiter plate were washed extensively with Tris-buffered saline containing 0.05% Tween 20 and the assay was developed with tetramethylbenzidine/H2O2 in citric acid buffer. After stopping the reaction with one volume of 1N H2SO4 the reaction was measured in an ELISA reader at 450 nm wavelength. The concentrations of Aβ in the culture supernatants were calculated from a standard curve obtained with known amounts of pure Aβ peptide.
Background: In an ELISA, binding on a coated surface is turned into a signal by an enzyme label.
As usually defined, the IC50 is the point on the concentration scale where inhibition reaches its midpoint. `NC1=N[C@@]2(CC(c3ccccc3)Oc3ccc(NC(=O)c4ccc(C(F)(F)F)cn4)cc32)C(F)(F)COC1` (mixture of isomers) [Example 52, N-((2RS,4R)-3′-Amino-6′,6′-difluoro-2-phenyl-6′,7′-dihydro-2′H-spiro[chroman-4,5′-[1,4]oxazepine]-6-yl)-5-(trifluoromethyl)picolinamide]: the IC50 was determined as 3380 nM.
The result for `NC1=N[C@@]2(CCOc3ccc(-c4cncnc4)cc32)C(F)(F)CO1` [Example 21, (R)-5′,5′-difluoro-6-(pyrimidin-5-yl)-5′,6′-dihydrospiro[chroman-4,4′-[1,3]oxazin]-2′-amine] reads 5140 nM; that for `N#Cc1cccc(-c2ccc3c(c2)[C@@]2(CC3)N=C(N)OCC2(F)F)c1` [Example 10, (R)-3-(2′-Amino-5′,5′-difluoro-2,3,5′,6′-tetrahydrospiro[indene-1,4′-[1,3]oxazine]-6-yl)benzonitrile], 960 nM; that for `NC1=N[C@@]2(CC(c3ccccc3)Oc3ccc(-c4cncc(Cl)c4)cc32)C(F)(F)CO1` (mixture of isomers) [Example 23, (2RS,4R)-6-(5-chloropyridin-3-yl)-5′,5′-difluoro-2-phenyl-5′,6′-dihydrospiro[chroman-4,4′-[1,3]oxazin]-2′-amine], 420 nM.
The value for `NC1=N[C@@]2(CC(c3ccccc3)Oc3ccc(-c4cncnc4)cc32)C(F)(F)CO1` (mixture of isomers) [Example 25, (2RS,4R)-5′,5′-difluoro-2-phenyl-6-(pyrimidin-5-yl)-5′,6′-dihydrospiro[chroman-4,4′-[1,3]oxazin]-2′-amine] was 1580 nM; that for `CC1(C)C[C@@]2(N=C(N)OCC2(F)F)c2cc(NC(=O)c3ccc(C#N)cn3)ccc2O1` [Example 41, (R)—N-(2′-Amino-5′,5′-difluoro-2,2-dimethyl-5′,6′-dihydrospiro[chroman-4,4′-[1,3]oxazine]-6-yl)-5-cyanopicolinamide] was 230 nM.
The value for `N#Cc1ccc(C(=O)Nc2ccc3c(c2)[C@@]2(CCC3)N=C(N)COCC2(F)F)nc1` [Example 47, (R)—N-(3′-Amino-6′,6′-difluoro-3,4,6′,7′-tetrahydro-2H,2′H-spiro[naphthalene-1,5′-[1,4]oxazepine]-7-yl)-5-cyanopicolinamide] was 240 nM.
Regarding `CC1(C)C[C@@]2(N=C(N)OCC2(F)F)c2cc(-c3cncc(Cl)c3)ccc2O1` [Example 28, (R)-6-(5-chloropyridin-3-yl)-5′,5′-difluoro-2,2-dimethyl-5′,6′-dihydrospiro[chroman-4,4′-[1,3]oxazin]-2′-amine], the IC50 is 2530 nM.
On to `NC1=N[C@@]2(CCc3ccc(-c4cncnc4)cc32)C(F)(F)CO1` [Example 7, (R)-5′,5′-Difluoro-6-(pyrimidin-5-yl)-2,3,5′,6′-tetrahydrospiro[indene-1,4′-[1,3]oxazin]-2′-amine], for which the IC50 amounted to 2370 nM.
The value for `NC1=N[C@@]2(CCOc3ccc(NC(=O)c4ccc(Cl)cn4)cc32)C(F)(F)COC1` [Example 50, (R)—N-(3′-Amino-6′,6′-difluoro-6′,7′-dihydro-2′H-spiro[chroman-4,5′-[1,4]oxazepine]-6-yl)-5-chloropicolinamide] was 2130 nM; that for `NC1=N[C@@]2(CCc3ccc(-c4ccnc(Cl)c4)cc32)C(F)(F)CO1` [Example 6, (R)-6-(2-Chloropyridin-4-yl)-5′,5′-difluoro-2,3,5′,6′-tetrahydrospiro[indene-1,4′-[1,3]oxazin]-2′-amine] was 1360 nM.
The value for `NC1=N[C@@]2(CC(c3ccccc3)Oc3ccc(NC(=O)c4ccc(Cl)cn4)cc32)C(F)(F)CO1` (single isomer, unassigned) [Example 36, N-((2R or 2S,4R)-2′-Amino-5′,5′-difluoro-2-phenyl-5′,6′-dihydrospiro[chroman-4,4′-[1,3]oxazine]-6-yl)-5-chloropicolinamide] was 195 nM.
Take `NC1=N[C@@]2(CC(c3ccccc3)Oc3ccc(NC(=O)c4ccc(F)cn4)cc32)C(F)(F)CO1` (single isomer, unassigned) [Example 38, N-((2R or 2S,4R)-2′-Amino-5′,5′-difluoro-2-phenyl-5′,6′-dihydrospiro[chroman-4,4′-[1,3]oxazine]-6-yl)-5-fluoropicolinamide]: the IC50 came out at 510 nM.
The value for `N#Cc1ccc(C(=O)Nc2ccc3c(c2)[C@@]2(CC(c4ccccc4)O3)N=C(N)COCC2(F)F)nc1` (mixture of isomers) [Example 53, N-((2RS,4R)-3′-Amino-6′,6′-difluoro-2-phenyl-6′,7′-dihydro-2′H-spiro[chroman-4,5′-[1,4]oxazepine]-6-yl)-5-cyanopicolinamide] was 470 nM.
The result for `NC1=N[C@@]2(CC(c3ccccc3)Oc3ccc(-c4cncnc4)cc32)C(F)(F)COC1` (mixture of isomers) [Example 58, (2RS,4R)-6′,6′-difluoro-2-phenyl-6-(pyrimidin-5-yl)-6′,7′-dihydro-2′H-spiro[chroman-4,5′-[1,4]oxazepin]-3′-amine] reads 1290 nM; that for `N#Cc1cccc(-c2ccc3c(c2)[C@@]2(CC(c4ccccc4)O3)N=C(N)OCC2(F)F)c1` (stereo partly drawn) [Example 27], 260 nM; that for `N#Cc1cccc(-c2ccc3c(c2)[C@@]2(CC(c4ccccc4)O3)N=C(N)COCC2(F)F)c1` (mixture of isomers) [Example 60, 3-((2RS,4R)-3′-amino-6′,6′-difluoro-2-phenyl-6′,7′-dihydro-2′H-spiro[chroman-4,5′-[1,4]oxazepine]-6-yl)benzonitrile], 1040 nM.
Take `NC1=N[C@@]2(CCC(F)(F)c3ccc(-c4cncc(F)c4)cc32)C(F)(F)CO1` [Example 4, (R)-4,4,5′,5′-Tetrafluoro-7-(5-fluoropyridin-3-yl)-3,4,5′,6′-tetrahydro-2H-spiro[naphthalene-1,4′-[1,3]oxazin]-2′-amine]: the IC50 worked out at 5690 nM.
The result for `NC1=N[C@@]2(CCCc3ccc(NC(=O)c4ccc(Cl)cn4)cc32)C(F)(F)CO1` [Example 12, (R)—N-(2′-Amino-5′,5′-difluoro-3,4,5′,6′-tetrahydro-2H-spiro[naphthalene-1,4′-[1,3]oxazine]-7-yl)-5-chloropicolinamide] reads 22 nM.
The result for `NC1=N[C@@]2(CCCc3ccc(NC(=O)c4ccc(Cl)cn4)cc32)C(F)(F)COC1` [Example 48, (R)—N-(3′-Amino-6′,6′-difluoro-3,4,6′,7′-tetrahydro-2H,2′H-spiro[naphthalene-1,5′-[1,4]oxazepine]-7-yl)-5-chloropicolinamide] reads 450 nM; that for `NC1=N[C@@]2(CC(c3ccccc3)Oc3ccc(-c4cc(Cl)cc(Cl)c4)cc32)C(F)(F)COC1` (mixture of isomers) [Example 57, (2RS,4R)-6-(3,5-Dichlorophenyl)-6′,6′-difluoro-2-phenyl-6′,7′-dihydro-2′H-spiro[chroman-4,5′-[1,4]oxazepin]-3′-amine], 6280 nM; that for `N#Cc1cncc(-c2ccc3c(c2)[C@@]2(CCC3(F)F)N=C(N)OCC2(F)F)c1` [Example 5, (R)-5-(2′-Amino-4,4,5′,5′-tetrafluoro-3,4,5′,6′-tetrahydro-2H-spiro[naphthalene-1,4′-[1,3]oxazine]-7-yl)nicotinonitrile], 2770 nM.
The value for `CC1(C)C[C@@]2(N=C(N)OCC2(F)F)c2cc(NC(=O)c3ccc(Cl)cn3)ccc2O1` [Example 40, (R)—N-(2′-Amino-5′,5′-difluoro-2,2-dimethyl-5′,6′-dihydrospiro[chroman-4,4′-[1,3]oxazine]-6-yl)-5-chloropicolinamide] was 2260 nM; that for `N#Cc1ccc(C(=O)Nc2ccc3c(c2)[C@@]2(CCS3(=O)=O)N=C(N)OCC2(F)F)nc1` [Example 46, N-[(4R)-2-amino-5,5-difluoro-1′,1′-dioxido-2′,3′,5,6-tetrahydrospiro[1,3-oxazine-4,4′-thiochromen]-6′-yl]-5-cyanoopyridine-2-carboxamide] was 3400 nM; that for `N#Cc1ccc(C(=O)Nc2ccc3c(c2)[C@@]2(CC(c4ccccc4)O3)N=C(N)OCC2(F)F)nc1` (single isomer, unassigned) [Example 37, N-((2R or 2S,4R)-2′-Amino-5′,5′-difluoro-2-phenyl-5′,6′-dihydrospiro[chroman-4,4′-[1,3]oxazine]-6-yl)-5-cyanopicolinamide] was 70 nM.
`NC1=N[C@@]2(CC(c3ccccc3)Oc3ccc(-c4cc(Cl)cc(Cl)c4)cc32)C(F)(F)CO1` (mixture of isomers) [Example 26, (2RS,4R)-6-(3,5-dichlorophenyl)-5′,5′-difluoro-2-phenyl-5′,6′-dihydrospiro[chroman-4,4′-[1,3]oxazin]-2′-amine]: the IC50 worked out at 2870 nM.
The value for `NC1=N[C@@]2(CCOc3ccc(-c4cncc(Cl)c4)cc32)C(F)(F)COC1` [Example 54, (R)-6-(5-Chloropyridin-3-yl)-6′,6′-difluoro-6′,7′-dihydro-2′H-spiro[chroman-4,5′-[1,4]oxazepin]-3′-amine] was 1160 nM.
